Results on ten compounds are retold here after ChEMBL document CHEMBL3991601, “The target landscape of clinical kinase drugs” (Science, 2017).

The target in one assay is T1, Activin receptor type-1 (Homo sapiens, UniProt Q04771).
T1 sequence (Q04771 whole entry): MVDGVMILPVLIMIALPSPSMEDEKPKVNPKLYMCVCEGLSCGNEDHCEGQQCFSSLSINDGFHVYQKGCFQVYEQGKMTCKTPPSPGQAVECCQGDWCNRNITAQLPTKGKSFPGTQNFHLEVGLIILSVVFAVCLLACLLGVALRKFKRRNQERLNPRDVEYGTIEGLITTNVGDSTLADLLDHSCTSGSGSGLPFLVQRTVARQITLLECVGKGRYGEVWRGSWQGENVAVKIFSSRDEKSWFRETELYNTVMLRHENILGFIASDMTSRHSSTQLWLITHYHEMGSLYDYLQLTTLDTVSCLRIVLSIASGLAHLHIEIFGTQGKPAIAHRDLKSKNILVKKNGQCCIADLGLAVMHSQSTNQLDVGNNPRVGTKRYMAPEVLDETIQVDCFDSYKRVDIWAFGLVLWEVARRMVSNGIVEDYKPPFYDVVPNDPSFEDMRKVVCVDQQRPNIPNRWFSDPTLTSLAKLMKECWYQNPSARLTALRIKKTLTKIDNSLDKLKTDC

The target of assay [1] is T2, AarF domain-containing protein kinase 1 (Homo sapiens, UniProt Q86TW2).
T2 sequence (Q86TW2 whole entry): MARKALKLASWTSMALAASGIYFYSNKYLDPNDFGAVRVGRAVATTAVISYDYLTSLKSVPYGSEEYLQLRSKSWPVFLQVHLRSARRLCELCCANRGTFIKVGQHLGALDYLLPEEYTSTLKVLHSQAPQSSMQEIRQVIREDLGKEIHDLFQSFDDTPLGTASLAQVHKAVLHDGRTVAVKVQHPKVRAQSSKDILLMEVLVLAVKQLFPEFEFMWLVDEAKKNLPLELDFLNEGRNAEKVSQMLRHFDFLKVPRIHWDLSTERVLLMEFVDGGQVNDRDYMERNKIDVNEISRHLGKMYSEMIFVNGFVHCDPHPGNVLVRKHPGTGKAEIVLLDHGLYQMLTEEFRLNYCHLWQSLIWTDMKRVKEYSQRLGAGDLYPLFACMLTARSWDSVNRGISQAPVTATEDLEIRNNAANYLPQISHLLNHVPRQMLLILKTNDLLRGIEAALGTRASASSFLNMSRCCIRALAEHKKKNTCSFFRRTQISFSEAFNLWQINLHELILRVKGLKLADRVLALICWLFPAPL

Assay [2] deals with T3, Bone morphogenetic protein receptor type-2 (Homo sapiens, UniProt Q13873).
T3 sequence (Q13873 whole entry): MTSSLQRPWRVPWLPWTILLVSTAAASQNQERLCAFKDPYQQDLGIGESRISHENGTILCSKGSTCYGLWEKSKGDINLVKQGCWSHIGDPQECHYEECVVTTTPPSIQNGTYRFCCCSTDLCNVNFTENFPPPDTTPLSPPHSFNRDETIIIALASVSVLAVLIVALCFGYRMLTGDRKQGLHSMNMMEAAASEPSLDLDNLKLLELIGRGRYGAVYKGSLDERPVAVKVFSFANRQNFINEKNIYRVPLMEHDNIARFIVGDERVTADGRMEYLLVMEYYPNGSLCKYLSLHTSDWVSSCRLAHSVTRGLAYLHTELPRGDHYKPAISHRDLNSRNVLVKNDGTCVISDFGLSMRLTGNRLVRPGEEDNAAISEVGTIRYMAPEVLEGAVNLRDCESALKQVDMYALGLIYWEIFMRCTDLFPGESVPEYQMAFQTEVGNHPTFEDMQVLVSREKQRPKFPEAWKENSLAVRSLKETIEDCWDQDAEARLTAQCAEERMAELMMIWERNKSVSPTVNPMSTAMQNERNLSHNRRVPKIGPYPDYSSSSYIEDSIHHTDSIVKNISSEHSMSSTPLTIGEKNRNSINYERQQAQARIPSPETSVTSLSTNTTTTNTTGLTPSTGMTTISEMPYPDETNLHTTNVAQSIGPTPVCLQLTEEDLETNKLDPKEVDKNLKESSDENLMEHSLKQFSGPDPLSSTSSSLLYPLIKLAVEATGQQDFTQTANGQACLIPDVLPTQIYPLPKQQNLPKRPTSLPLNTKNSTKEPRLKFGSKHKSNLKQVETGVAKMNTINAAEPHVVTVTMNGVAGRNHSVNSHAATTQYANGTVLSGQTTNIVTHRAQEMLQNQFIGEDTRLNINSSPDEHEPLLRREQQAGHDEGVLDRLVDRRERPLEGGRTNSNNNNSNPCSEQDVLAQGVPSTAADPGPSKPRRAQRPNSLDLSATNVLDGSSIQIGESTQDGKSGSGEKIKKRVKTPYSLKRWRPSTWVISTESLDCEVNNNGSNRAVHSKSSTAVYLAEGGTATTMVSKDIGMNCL

Assay [3] concerns the target Serine/threonine-protein kinase MRCK beta (Homo sapiens, UniProt Q9Y5S2).
The target in assay [4] is Casein kinase II subunit alpha' (Homo sapiens, UniProt P19784).
Sequence of Casein kinase II subunit alpha' (P19784 whole entry): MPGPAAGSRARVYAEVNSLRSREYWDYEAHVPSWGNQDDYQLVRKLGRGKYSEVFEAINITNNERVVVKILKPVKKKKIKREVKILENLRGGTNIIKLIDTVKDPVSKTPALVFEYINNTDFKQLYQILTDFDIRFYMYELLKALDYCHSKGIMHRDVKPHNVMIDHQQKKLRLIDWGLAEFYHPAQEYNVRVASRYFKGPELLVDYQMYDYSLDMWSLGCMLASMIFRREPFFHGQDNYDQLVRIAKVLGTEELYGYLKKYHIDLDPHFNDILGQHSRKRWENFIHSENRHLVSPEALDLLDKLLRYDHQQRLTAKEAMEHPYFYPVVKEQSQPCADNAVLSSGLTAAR
For another assay, the target named is Ephrin type-A receptor 4 (Homo sapiens, UniProt P54764).
Sequence of Ephrin type-A receptor 4 (P54764 whole entry): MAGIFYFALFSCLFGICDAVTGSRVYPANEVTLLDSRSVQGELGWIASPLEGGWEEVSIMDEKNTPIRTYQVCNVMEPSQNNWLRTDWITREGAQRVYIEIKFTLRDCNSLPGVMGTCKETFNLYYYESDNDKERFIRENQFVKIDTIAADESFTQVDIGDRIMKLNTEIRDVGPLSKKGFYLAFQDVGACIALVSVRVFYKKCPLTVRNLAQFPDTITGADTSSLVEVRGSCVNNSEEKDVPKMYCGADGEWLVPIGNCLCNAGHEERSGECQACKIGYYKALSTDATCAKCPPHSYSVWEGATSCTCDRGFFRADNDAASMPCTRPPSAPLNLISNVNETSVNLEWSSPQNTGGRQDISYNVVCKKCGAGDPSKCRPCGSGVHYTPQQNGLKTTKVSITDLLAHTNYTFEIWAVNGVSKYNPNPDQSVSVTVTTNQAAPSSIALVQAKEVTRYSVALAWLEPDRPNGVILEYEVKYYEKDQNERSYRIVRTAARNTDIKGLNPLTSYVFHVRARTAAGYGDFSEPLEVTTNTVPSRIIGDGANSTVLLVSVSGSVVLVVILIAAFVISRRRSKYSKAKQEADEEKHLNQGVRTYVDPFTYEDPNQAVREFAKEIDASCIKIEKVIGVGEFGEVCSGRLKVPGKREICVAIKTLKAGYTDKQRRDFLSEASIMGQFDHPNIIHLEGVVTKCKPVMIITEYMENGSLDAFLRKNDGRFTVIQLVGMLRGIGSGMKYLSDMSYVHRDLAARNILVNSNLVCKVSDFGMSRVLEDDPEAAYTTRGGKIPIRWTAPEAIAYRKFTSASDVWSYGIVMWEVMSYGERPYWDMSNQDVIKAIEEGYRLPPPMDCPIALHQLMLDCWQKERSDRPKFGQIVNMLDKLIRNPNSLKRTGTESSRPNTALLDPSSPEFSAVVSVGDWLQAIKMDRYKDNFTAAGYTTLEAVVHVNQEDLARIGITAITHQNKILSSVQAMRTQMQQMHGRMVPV
Assay [5] has as its target Glycogen synthase kinase-3 alpha (Homo sapiens, UniProt P49840).
A further assay deals with Midasin (Homo sapiens, UniProt Q9NU22).
Assay [6] concerns the target Serine/threonine-protein kinase 16 (Homo sapiens, UniProt O75716).
The target of assay [7] is T4, Serine/threonine-protein kinase ULK3 (Homo sapiens, UniProt Q6PHR2).
T4 sequence (Q6PHR2 whole entry): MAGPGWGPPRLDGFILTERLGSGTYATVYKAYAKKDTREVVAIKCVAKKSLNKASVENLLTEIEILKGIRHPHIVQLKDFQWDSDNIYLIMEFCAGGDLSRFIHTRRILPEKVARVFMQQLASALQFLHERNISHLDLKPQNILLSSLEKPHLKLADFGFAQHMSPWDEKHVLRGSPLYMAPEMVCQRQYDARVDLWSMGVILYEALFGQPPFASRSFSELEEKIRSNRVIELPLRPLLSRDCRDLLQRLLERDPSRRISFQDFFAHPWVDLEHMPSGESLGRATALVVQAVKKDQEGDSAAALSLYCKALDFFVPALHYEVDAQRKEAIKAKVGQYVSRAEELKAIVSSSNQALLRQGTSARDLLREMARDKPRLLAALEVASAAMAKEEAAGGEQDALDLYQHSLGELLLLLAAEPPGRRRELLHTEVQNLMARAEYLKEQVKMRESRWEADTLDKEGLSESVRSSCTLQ

Molecules are shown by their SMILES. Counter-ions that a name gives are not always drawn. Active and inactive are the calls of the source. For most assays here, no stated cut-off is given here; in the data, actives have a measured Kd and inactives only a lower limit. Where only a bound is given, the exact number is not on record here.

Sequence of Serine/threonine-protein kinase 16 (O75716 whole entry): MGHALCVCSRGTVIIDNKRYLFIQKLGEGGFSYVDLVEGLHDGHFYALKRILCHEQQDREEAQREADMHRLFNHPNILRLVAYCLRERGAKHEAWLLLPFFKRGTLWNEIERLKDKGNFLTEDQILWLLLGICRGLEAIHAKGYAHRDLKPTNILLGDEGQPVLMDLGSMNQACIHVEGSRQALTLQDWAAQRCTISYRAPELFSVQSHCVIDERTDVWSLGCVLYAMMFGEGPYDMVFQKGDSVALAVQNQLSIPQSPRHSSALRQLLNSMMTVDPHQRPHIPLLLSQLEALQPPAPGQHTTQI
Sequence of Serine/threonine-protein kinase MRCK beta (Q9Y5S2 whole entry): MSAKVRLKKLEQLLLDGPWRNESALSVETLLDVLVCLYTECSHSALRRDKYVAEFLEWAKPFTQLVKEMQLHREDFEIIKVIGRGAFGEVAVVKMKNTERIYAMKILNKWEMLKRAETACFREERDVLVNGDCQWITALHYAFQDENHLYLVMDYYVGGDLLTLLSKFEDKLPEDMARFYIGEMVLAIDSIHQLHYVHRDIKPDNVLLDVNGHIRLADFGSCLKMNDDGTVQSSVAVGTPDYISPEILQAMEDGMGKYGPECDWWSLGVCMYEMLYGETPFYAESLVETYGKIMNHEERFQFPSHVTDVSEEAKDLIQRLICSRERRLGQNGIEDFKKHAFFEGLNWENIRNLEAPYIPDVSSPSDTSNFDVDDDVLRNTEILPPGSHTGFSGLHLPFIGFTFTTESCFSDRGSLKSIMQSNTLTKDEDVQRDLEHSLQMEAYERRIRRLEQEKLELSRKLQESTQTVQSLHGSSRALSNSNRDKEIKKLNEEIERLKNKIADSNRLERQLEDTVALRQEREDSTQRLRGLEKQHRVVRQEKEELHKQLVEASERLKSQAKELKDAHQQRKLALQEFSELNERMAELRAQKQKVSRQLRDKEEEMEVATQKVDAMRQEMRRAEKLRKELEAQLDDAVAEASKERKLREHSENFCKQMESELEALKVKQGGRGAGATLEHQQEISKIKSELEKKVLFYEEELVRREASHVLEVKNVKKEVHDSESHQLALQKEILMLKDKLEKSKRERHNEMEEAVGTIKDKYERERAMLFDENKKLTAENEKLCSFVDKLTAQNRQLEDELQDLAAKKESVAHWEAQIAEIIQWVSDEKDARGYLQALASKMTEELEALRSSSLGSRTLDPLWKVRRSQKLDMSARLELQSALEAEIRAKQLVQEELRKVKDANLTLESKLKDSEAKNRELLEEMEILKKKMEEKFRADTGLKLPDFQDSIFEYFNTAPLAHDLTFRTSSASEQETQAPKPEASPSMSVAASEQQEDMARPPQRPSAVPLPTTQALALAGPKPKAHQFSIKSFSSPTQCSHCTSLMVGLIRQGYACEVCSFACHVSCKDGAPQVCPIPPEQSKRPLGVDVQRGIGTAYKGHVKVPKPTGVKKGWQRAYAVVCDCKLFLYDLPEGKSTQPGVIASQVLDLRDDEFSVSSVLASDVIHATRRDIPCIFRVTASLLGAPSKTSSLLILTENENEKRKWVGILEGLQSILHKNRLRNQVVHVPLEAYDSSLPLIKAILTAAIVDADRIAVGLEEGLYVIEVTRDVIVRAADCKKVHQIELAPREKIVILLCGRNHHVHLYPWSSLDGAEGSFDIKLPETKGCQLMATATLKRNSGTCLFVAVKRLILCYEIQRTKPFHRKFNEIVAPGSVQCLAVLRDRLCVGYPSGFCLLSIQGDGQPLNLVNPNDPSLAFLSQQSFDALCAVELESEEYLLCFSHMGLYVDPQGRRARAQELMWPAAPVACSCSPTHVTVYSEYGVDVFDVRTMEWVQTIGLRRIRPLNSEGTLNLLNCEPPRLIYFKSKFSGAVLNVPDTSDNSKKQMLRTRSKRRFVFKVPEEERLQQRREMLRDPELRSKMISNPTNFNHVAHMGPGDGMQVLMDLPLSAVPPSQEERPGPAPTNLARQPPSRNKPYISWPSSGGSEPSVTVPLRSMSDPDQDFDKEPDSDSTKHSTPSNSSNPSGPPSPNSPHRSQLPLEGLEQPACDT
Sequence of Glycogen synthase kinase-3 alpha (P49840 whole entry): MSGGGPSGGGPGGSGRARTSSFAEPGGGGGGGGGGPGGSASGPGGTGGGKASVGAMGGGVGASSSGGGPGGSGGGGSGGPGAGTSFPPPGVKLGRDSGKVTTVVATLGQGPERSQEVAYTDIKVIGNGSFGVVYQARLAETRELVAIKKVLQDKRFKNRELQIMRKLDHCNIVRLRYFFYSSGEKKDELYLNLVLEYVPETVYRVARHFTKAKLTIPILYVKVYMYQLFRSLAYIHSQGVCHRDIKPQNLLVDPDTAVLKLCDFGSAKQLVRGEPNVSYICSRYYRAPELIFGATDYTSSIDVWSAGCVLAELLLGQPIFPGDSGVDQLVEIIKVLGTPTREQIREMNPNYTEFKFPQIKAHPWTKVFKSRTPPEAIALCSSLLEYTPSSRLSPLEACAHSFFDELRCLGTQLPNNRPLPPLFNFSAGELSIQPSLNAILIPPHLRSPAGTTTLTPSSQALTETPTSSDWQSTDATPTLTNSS

In general, Kd refers to the equilibrium constant for the complex coming apart. Consider `CCS(=O)(=O)N1CCN(c2ccc(Nc3ncc(C(N)=O)c(NC4CC4)n3)cc2)CC1` [Cerdulatinib Hydrochloride], for which the Kd at Activin receptor type-1 was > 30 µM (inactive); in assay [1] it was > 30 µM (inactive); in assay [2], 4.86 µM (active); in assay [3], > 30 µM (inactive); in assay [4] it was 16.3 µM (active); on Ephrin type-A receptor 4 it was > 30 µM (inactive). In addition, the Kd in assay [5] is > 30 µM (inactive); on Midasin, > 30 µM (inactive); in assay [6], > 30 µM (inactive); in assay [7], 0.655 µM (active).

Take `Cc1nc2cc(-n3ncc(C(=O)c4cc5ccccc5[nH]4)c3N)ccc2[nH]1` [FGFR INHIBITOR DEBIO 1347]: the Kd (on Activin receptor type-1; in assay [1]; in [2]; in [3]; in assay [4]; at Ephrin type-A receptor 4) was > 30 µM (inactive) each time. The Kd (in assay [5]; on Midasin; in assay [6]; in [7]) was > 30 µM (inactive) throughout.

For the compound `O=C(Nc1nc2cccc(-c3ccc(CN4CCS(=O)(=O)CC4)cc3)n2n1)C1CC1` [FILGOTINIB], the Kd at Activin receptor type-1 was > 30 µM (inactive); in [1], 2.03 µM (active); in assay [2], > 30 µM (inactive); in [3], > 30 µM (inactive); in assay [4], > 30 µM (inactive); at Ephrin type-A receptor 4, > 30 µM (inactive). The Kd (in assay [5]; on Midasin; in assay [6]; in assay [7]) was > 30 µM (inactive) throughout.

For `Cc1cccc(-c2nn3c(c2-c2ccnc4ccc(C(N)=O)cc24)CCC3)n1` [GALUNISERTIB], the Kd (on Activin receptor type-1; in assay [1]; in assay [2]; in assay [3]; in [4]; on Ephrin type-A receptor 4) was > 30 µM (inactive) throughout. Also, the Kd (in assay [5]; at Midasin; in assay [6]; in assay [7]) was > 30 µM (inactive) throughout.

For the compound `COc1ccc(S(=O)(=O)N(C(C)=O)c2ccccc2/C=C/c2cc[n+]([O-])cc2)cc1` [HMN-214], the Kd (on Activin receptor type-1; in [1]; in [2]; in assay [3]; in assay [4]; on Ephrin type-A receptor 4) was > 30 µM (inactive) throughout. For the same compound, the Kd (in [5]; on Midasin; in assay [6]; in assay [7]) was > 30 µM (inactive) throughout.

In the case of `CNC(=O)c1cccc2cc(Oc3ccnc4cc(OCC5(N)CC5)c(OC)cc34)ccc12` [LUCITANIB], the Kd (at Activin receptor type-1; in [1]; in assay [2]; in assay [3]; in assay [4]; on Ephrin type-A receptor 4) was > 30 µM (inactive) throughout. Further, the Kd (in assay [5]; at Midasin; in assay [6]; in assay [7]) was > 30 µM (inactive) in each case.

For `CNC(=O)c1nn(C)c2c1C(C)(C)Cc1cnc(Nc3ccc(N4CCN(C)CC4)cc3)nc1-2` [MILCICLIB], the Kd on Activin receptor type-1 was 0.477 µM (active); in [1], > 30 µM (inactive); in [2], > 30 µM (inactive); in assay [3] it was > 30 µM (inactive); in [4], 3.5 µM (active); at Ephrin type-A receptor 4, 8.13 µM (active). The Kd is > 30 µM (inactive) in [5], > 30 µM (inactive) at Midasin, 1.1 µM (active) in assay [6] and > 30 µM (inactive) in [7].

Turning to `NC1(c2ccc(-c3nc4ccn5c(=O)[nH]nc5c4cc3-c3ccccc3)cc2)CCC1` [MK-2206], the Kd (on Activin receptor type-1; in assay [1]; in assay [2]; in assay [3]; in [4]; on Ephrin type-A receptor 4) was > 30 µM (inactive) each time. For the same compound, the Kd (in assay [5]; at Midasin; in assay [6]; in assay [7]) was > 30 µM (inactive) in each case.

As to `CN(C[C@@H]1COCCO1)S(=O)(=O)Nc1ccc2ccc3ncc(-c4cnn(C)c4)cc3c(=O)c2c1` [MK-2461], the Kd (at Activin receptor type-1; in [1]; in [2]; in assay [3]; in assay [4]; at Ephrin type-A receptor 4) was > 30 µM (inactive) each time. Moreover, the Kd (in [5]; at Midasin; in assay [6]; in assay [7]) was > 30 µM (inactive) in each case.

Turning to `Cn1cc(-c2cnc3ccc4ccc(CS(=O)(=O)NCc5ccccn5)cc4c(=O)c3c2)cn1` [MK-8033], the Kd (at Activin receptor type-1; in assay [1]; in assay [2]; in [3]; in assay [4]; on Ephrin type-A receptor 4) was > 30 µM (inactive) in each case. Also, the Kd (in assay [5]; on Midasin; in assay [6]; in assay [7]) was > 30 µM (inactive) each time.
